In data set [1] the test system is wild-type L. donovani (LdBOB) promastigotes. The experiment in a line: Antileishmanial activity against wild-type L. donovani promastigotes. As to conditions: Leishmania donovani, read-out: EC50 Values, WT. Format: cell-based. On the procedure: (§1) EC50 values were determined as previously described. Nifurtimox was used as a positive control for activation via NTR1 [38] while delamanid was used as a positive control for activation via NTR2 [39].

The subject of data set [2] is L. donovani promastigotes overexpressing NTR1. The experiment in a line: microbe, parasite or virus in culture. Format: cell-based. The settings on record: Leishmania donovani, read-out: EC50 Values, NTR1 OE. On the procedure: as §1
The test system of data set [3] is L. donovani promastigotes overexpressing NTR2. The data set is described as follows: microbe, parasite or virus in culture. Format: cell-based. The settings on record: Leishmania donovani, read-out: EC50 Values, NTR2 OE. Here is the method: as §1
In data set [4] the test system is Leishmania infantum promastigotes. The experiment in a line: In vitro antileishmanial activity on L. infantum promastigotes (MTT, 72 h). Format: cell-based. As to conditions: Leishmania infantum, L. infantum promastigotes, MTT, read-out: Anti-L. infantum Promastigote Activity EC50. Here is the method:
Luciferase-expressing Leishmania infantum was kindly provided by Professor Thierry Lang of the Institut Pasteur. L. infantum promastigotes were routinely grown at 27 °C in Schneider’s Drosophila Medium (Dominique […] SAS, Bernolsheim, France) supplemented with 10% fetal calf serum, 2% human urine, sodium pyruvate 0.04 mM, hemin 0.1 µg/mL, HEPES 5 mM, streptomycin 100 µg/mL, penicillin 100 U/mL, L-glutamine 2 mM (culture medium). The in vitro evaluation of the antileishmanial activity of the tested compound on L. infantum promastigotes forms was assessed according to the Mosmann protocol with slight modifications. […] Appropriate controls treated with DMSO, Miltefosine, Amphotericin B and Fexinidazole sulfone (reference drugs purchased from Sigma-Aldrich, Saint-Louis, MO, USA) were added to each set of experiments. The plates were incubated at 27 °C for 72 h, Then, each plate-well was microscope-analyzed to detect any precipitate formation. Afterward, 20 µL of MTT (3-(4,5-dimethylthiazol-2-yl)-2,5-diphenyltetrazolium bromide) (Sigma-Aldrich, Saint-Louis, MI, USA) solution (5 mg/mL in PBS) were added to each well and incubated at 27 °C for 4 h. The reaction was then stopped by the addition of 100 µL of 10% sodium dodecyl sulfate—50% isopropanol. Plates were shaken vigorously at 400 rpm for 10 min. […] EC50 values represent the mean value calculated from at least three separate experiments.

The nature of data set [5]: In vitro cytotoxicity on the human hepatic HepG2 cell line (MTT, 72 h). The settings on record: human, HepG2 cells (hepatocarcinoma cell line, ATCC HB-8065), HepG2 Cytotoxicity CC50, HepG2, 72 h, MTT. Here is the method:
(§2) HepG2 cell line (hepatocarcinoma cell line purchased from ATCC, ref HB-8065) was maintained at 37 °C, 5% CO2 with 90% humidity in MEM supplemented with 10% fetal bovine serum, 1% L-glutamine (200 mM) and penicillin (100 U/mL)/streptomycin ([…]) (complete MEM medium). The tested molecules’ cytotoxicity was assessed according to the method of Mosmann with slight modifications. Briefly, 5 × 10^3 cells in 100 μL of complete medium were inoculated into each well of 96-well plates and incubated at 37 °C in a humidified 5% CO2. After 24 h incubation, 100 μL of medium with various product concentrations dissolved in DMSO (final concentration less than 0.5% v/v) were added and the plates were incubated for 72 h at 37 °C. Triplicate assays were performed for each sample. Each plate well was then microscope-examined to detect possible precipitate formation before the medium was aspirated from the wells. Then, 100 μL of MTT (3-(4,5-dimethyl-2-thiazolyl)-2,5-diphenyl-2H-tetrazolium bromide) solution (0.5 mg/mL in medium without FCS) were then added to each well. Cells were incubated for 2 h at 37 °C, following which the MTT solution was removed and DMSO (100 μL) was added to dissolve the resulting blue formazan crystals. Plates were shaken vigorously (700 rpm) for 10 min. The absorbance was measured at 570 nm with 630 nm as reference wavelength using a TECAN Infinite F-200 spectrophotometer (Tecan Trading AG, Männedorf, Switzerland). DMSO was used as blank and doxorubicin (purchased from Sigma Aldrich, Saint Louis, MI, USA) as positive control. Cell viability was calculated as a percentage of control (cells incubated without compound). […] CC50 values represent the mean value calculated from three separate experiments.

The subject of data set [6] is HepG2 cell line. Described as above. The settings on record: for Selectivity INDEX (SI = CC50/EC50): HepG2 CC50 / L. infantum promastigote EC50. On the procedure: as §2
Data set [7] can be described thus: In vitro cytotoxicity on the human monocyte THP-1 cell line (MTT, 72 h). The settings on record: human; THP-1, 72 h, MTT. Format: cell-based. On the procedure: (§3) The undifferentiated THP1 human monocyte cells (acute monocytic leukemia cell line purchased from ATCC, ref TIB-202) were routinely grown in RPMI 1640 medium (Life Technologies, Saint-Aubin, France) supplemented with 10% FCS (Life Technologies, Saint-Aubin, France), 100 U/mL penicillin, 100 µg/mL streptomycin and 2 mM L-glutamine at 37 °C, 5% CO2. The culture was maintained between 3.10^5 and 8.10^5 cells/mL. […] Wells were washed with RPMI and 100 µL of fresh complete medium was added. […] Then, 100 µL of MTT solution (0.5 mg/mL in medium) was added to each well. Cells were incubated for 2 h at 37 °C. […] Plates were shaken vigorously (700 rpm) for 10 min. […] (Palo Alto, CA, USA).

For data set [8], the system named is THP-1 cell line. The data set is described as above. Format: cell-based. As to conditions: THP-1 CC50 / L. infantum promastigote EC50. On the procedure: as §3
Data set [9] is described as follows: Lipophilicity by Chromatographic Hydrophobicity Index (CHI). The settings on record: pH 7.4, CHI; read-out: CHI logD7.4. Format: physicochemical. On the procedure:
B: acetonitrile, at a flow rate of 0.300 mL/min and 0.5-µL injections. The validity of the CHI versus retention time was established on a reference mixture containing theophylline, phenyltetrazole, benzimidazole, acetophenone, propiophenone, butyrophenone and valerophenone.

Data set [10] in a line: Aqueous solubility in PBS by shake-flask method. The settings on record: 25 °C, pH 7.4, aqueous buffer, thermodynamic from solid, PBS pH 7.4, 25 °C. Format: physicochemical. Here is the method: Briefly, an excess of compound (approx. 2 mg) was stirred in PBS (0.5 mL, 0.15 M, pH 7.4) at 25 °C for 72 h. A 100 µL sample was drawn, any excess material removed by centrifugation, and diluted tenfold with methanol/water 1:1 before HPLC-UV quantification using a pre-established calibration curve (PLRP-S column (Agilent), 3 µm particle size, 100 A porosity, 50 × 2.1 mm internal dimensions). Eluent: isocratic acetonitrile/water/formic acid 80:20:0.1, 0.4 mL/min, detection at 320 nm, 2-µL injections).

≈ marks a conversion by molar mass, not a printed value. Where “and” joins values, the source holds several entries; their conditions need not be identical. Equal entries are not always repeated. Where two headings read alike, the source gives them in different places.

In the case of `CC1CS(=O)(=O)CCN1/N=C/c1ccc([N+](=O)[O-])o1` (centres unmarked) [Nifurtimox], the EC50 (as a rule, the concentration that produces a half-maximal response) in data set [1] turned out to be 3.11 ± 0.223 µM; in [2], 0.144 ± 0.01 µM; in [3], 0.163 ± 0.011 µM.

For the compound `N#CCN1C(=O)S/C(=C\c2cccc([N+](=O)[O-])c2)C1=O` [Compound 14c, (Z)-2-(5-(3-Nitrobenzylidene)thiazolidine-2,4-dion-3-yl)acetonitrile], the melting point (usually the temperature of the solid-liquid transition) fell in the range of 173 to 175 °C. Also, in [4], the EC50 was determined as 7 ± 2.96 µM. In addition, the CC50 (commonly the concentration that lowers cell viability or growth by half) at 72 h in [5] was determined as 101 µM. In [6], the “Selectivity INDEX (SI = CC50/EC50)” value is 14 and 14.4. In [6] (read-out: HepG2 Cytotoxicity CC50, HepG2, 72 h, MTT), the CC50 worked out at 101 ± 19.3 µM. In data set [7], this compound showed a CC50 at 72 h of 121 ± 9 µM. Moreover, the “Selectivity index (THP-1)” value in data set [8] was 17. In addition, the chromatographic logD in [9] worked out at 2.85. The solubility – broadly, the dissolved amount per volume that the medium holds – at 72 h in [10] (read-out: PBS Solubility (log S) (converted)) was 15.8 µM (≈ 4.58 µg/mL). Further, the solubility at 72 h in data set [10] (read-out: PBS solubility) worked out at 16 µM (≈ 4.63 µg/mL). Further, the EC50 in data set [1] is 22.1 µM. Also, the EC50 in data set [2] was determined as 3.78 ± 0.313 µM. Besides, the 50% effective concentration (EC50) in data set [3] came to 18.5 µM.

Consider `Cn1c([N+](=O)[O-])cnc1COc1ccc(S(C)(=O)=O)cc1` [Fexinidazole sulfone, reference compound], for which the half-maximal effective concentration (EC50) in data set [4] came to 3.1 ± 0.7 µM. The CC50 at 72 h in data set [5] and in data set [7] was above 200 µM throughout. For the same compound, in data set [6], the “Selectivity INDEX (SI = CC50/EC50)” value is reported as above 64.5.

For the compound `C[C@]1(COc2ccc(N3CCC(Oc4ccc(OC(F)(F)F)cc4)CC3)cc2)Cn2cc([N+](=O)[O-])nc2O1` [Delamanid], the 50% effective concentration (EC50) in data set [1] turned out to be 0.003 ± 0.0001 µM; in data set [2], 0.002 ± 0.0003 µM; in data set [3] it was 0.0003 ± 1e-06 µM.

(Values after publication PMC11280390, “Synthesis of Nitrostyrylthiazolidine-2,4-dione Derivatives Displaying Antileishmanial Potential” (Pharmaceuticals, 2024).)
